Laboratory results published in US20200239412A1, “NEW DERIVATES OF DHAA WITH ELECTROSTATIC TUNING” (priority 2017, published 2020).
Where “and” joins values, the source holds several entries; their conditions need not be identical. Identical values can stand only once. Counter-ions that a name gives are not always drawn.

Experiments:
Assay type in all cases: cell-based
[1] = target: 3R Shaker Kv channel (M356R/A359R) (Drosophila melanogaster, UniProt P08510, A359R/DEL6-46/M356R); assay: in vitro; conditions: for G(V) shift: mean; for pKa at 100 μM: Drosophila, functional pH dependence, read-out: Functional pKa (pH where half of the maximum G(V) shift was achieved)
Excerpt: (§1) Experiments were made with the Shaker H4 channel incapable of fast N-type inactivation due to a Δ6-46 deletion, referred to as the wt Shaker Kv channel. The 3R Shaker Kv channel with two additional positively charged arginines (M356R/A359R) in the extracellular end of S4, was also used.
(§2) For the Shaker channels, Bluescript II KS(+) plasmid was linearized with HindIII and synthesis of cRNA were made with the T7 mMessage mMachine kit (Ambion, Austin, Tex.). Point mutations around S4, on the Shaker Kv channel, were introduced using QuickChange Site-Directed Mutagenesis Kit (Agilent Technologies, Santa Clara, Calif.) and sequencing were used for verification.
(§3) 50 nl cRNA was injected into Xenopus laevis oocytes using a Nanoject injector (Drummond Scientific, Broomall, Pa.) and the oocytes were stored at 8° C. in a modified Barth's solution (MBS) before experiments (16° C., M-channel, 1-2 days). The MBS contained (in mM): 88 NaCl, 1 KCl, 2.4 NaHCO3, 15 HEPES, 0.33 Ca(NO3)2, 0.41 CaCl2), and 0.82 MgSO4, pH was adjusted to 7.5 by NaOH and the MBS was supplemented sodium pyruvate (2.5 mM). All animal experiments were approved by the Linkoping's local Animal Care and Use Committee.
(§4) Currents were measured 1-6 days after cRNA injection using the two-electrode voltage clamp technique (GeneClamp 500B amplifier, Axon instruments). Signals were low pass filtered at 5 kHz and digitized by a Digidata 1440A converter (Molecular Devices, Sunnyvale, Calif.). The amplifiers leak compensation was used and Clampex 10.2 software (Molecular Devices) was used to obtain data and create voltage protocols. The extracellular control solution contained (in mM): 1 KCl, 88 NaCl, 0.8 MgCl2, 0.4 CaCl2) and 15 HEPES. pH were adjusted with NaOH. Electrode pipettes were made from borosilicate glass capillaries (Harvard apparatus, Kent, UK) using a two stage electrode puller (Narishige, Tokyo, Japan) and resistance was between 0.5-2.0 MO once filled with 3 M KCl solution. In the voltage protocol for the wt and 3R Shaker channel, holding potential was set to −80 mV and steady-state currents were measured at voltages between −80 and +50 mV (wt Shaker Kv channel) or +70 mV (3R Shaker Kv channel), using 5 mV increments, 100 ms. […] Physiol. 143, 173-182 (2014). For the M-channel, holding potential was set to −100 mV, test-voltages were measured between −120 and +50 mV (10 mV increments for 2 s) and tail currents were measured at −30 mV.
(§5) Control solution was perfused to the recording chamber (0.5 ml/min) and the test solution was added manually with a syringe, in a volume large enough to replace the control solution manifold. Resin acids compounds were dissolved in DMSO (100 mM) and stored at −20° C. Just prior to experiment the compound was diluted to desired concentration in control solution. Recovery was measured after continuously perfusion of control solution, maximum 5 min. All recordings were made with the perfusion off. Experiments were carried out in room temperature (20-23° C.) and chemicals were purchased from Sigma Aldrich if not stated otherwise.
(§6) Currents were leak subtracted and steady-state currents were measured 80-86 ms after onset of the test voltages (Clampfit 10.5, Molecular Devices). K conductance, GK, was calculated using,
(§7) where IK is the steady-state current, V the absolute membrane voltage and VK the reversal potential for K ions (−80 mV), and the following Boltzmann curve was used to fit the data:
(§8) GK(V)=A/(1+exp((V1/2−V)/s)^n (2)
(§9) where A is the amplitude of the curve, V1/2 the midpoint when n=1, s the slope and n an exponent for better curve fitting, set to n=4. The voltage shift was calculated at 10% of maximal conductance in control curve.
(§10) To quantify the concentration dependence or pH dependence of the GK(V) shifts the following equation was used:
(§11) ΔVG(V)=ΔVMAX/(1+c1/2/c), (3)

[2] = target: wt Shaker Kv channel (Shaker H4, Δ6-46) (Drosophila melanogaster, UniProt P08510, DEL6-46); assay: Two-electrode voltage clamp, G(V) shift on wt Shaker Kv channel expressed in Xenopus laevis oocytes; conditions: mean
Excerpt: as §1, §2, §3, §4, §5, §6, §7, §8, §9, §10, §11

[3] = target: T1, hKv7.2/Kv7.3 (M-channel) (Homo sapiens, UniProt O43525+O43526); assay: Two-electrode voltage clamp, G(V) shift on human M-channel expressed in Xenopus laevis oocytes
T1 construct: expressed in transfected cells; host or cells: Xenopus laevis oocytes (cRNAs mixed 1:1)
Procedure: Experiments were also made with the human hKv7.2/Kv7.3, referred to as the M-channel. cRNAs were mixed in a 1:1 molar ratio before injection into oocytes. hKv7.2 [GenBank Acc. No. NM_004518]. hKv7.3 [GenBank Acc. No NM_004519].
as §3, §4, §5
For the M channel tail currents were measured 18 ms after onset and then plotted against the test voltage. The Boltzmann curve (Eq. 2) was used to fit data and the slope was set to shared value between control and test compound. V1/2 was used to calculate the GK(V) shift.
as §10, §11
where ΔVG(v) is the voltage shift, ΔVMAX is the amplitude of the curve, c the concentration, c1/2 the concentration at which half maximum response occur. For compounds with no pH dependence the data was fitted with a horizontal line, with the slope set to 0.

Chain of 3R Shaker Kv channel (M356R/A359R) (P08510 other isoform, or with tags, fused parts or gaps DEL6-46/M356R/A359R): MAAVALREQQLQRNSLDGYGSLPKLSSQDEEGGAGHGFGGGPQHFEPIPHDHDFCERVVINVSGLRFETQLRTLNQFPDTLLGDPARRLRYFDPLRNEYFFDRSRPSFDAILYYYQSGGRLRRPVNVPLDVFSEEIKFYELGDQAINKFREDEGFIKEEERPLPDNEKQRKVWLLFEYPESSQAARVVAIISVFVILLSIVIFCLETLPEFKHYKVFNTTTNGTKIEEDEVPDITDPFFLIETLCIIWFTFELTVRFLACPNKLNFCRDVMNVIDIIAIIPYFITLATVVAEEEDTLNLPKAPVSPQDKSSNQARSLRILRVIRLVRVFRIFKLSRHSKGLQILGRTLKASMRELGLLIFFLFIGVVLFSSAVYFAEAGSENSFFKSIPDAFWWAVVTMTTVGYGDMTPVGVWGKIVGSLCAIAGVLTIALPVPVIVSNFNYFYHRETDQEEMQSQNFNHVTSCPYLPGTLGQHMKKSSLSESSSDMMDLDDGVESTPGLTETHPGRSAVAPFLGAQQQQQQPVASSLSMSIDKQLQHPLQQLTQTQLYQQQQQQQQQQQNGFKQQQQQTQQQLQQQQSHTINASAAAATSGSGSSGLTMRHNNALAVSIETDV
Chain of wt Shaker Kv channel (Shaker H4, Δ6-46) (P08510 other isoform, or with tags, fused parts or gaps DEL6-46): as the sequence (P08510 other isoform, or with tags, fused parts or gaps DEL6-46/M356R/A359R) above, with R315M, R318A counted along it

`CC(C)C1=CC2=CC[C@@H]3[C@](C)(CCC[C@@]3(C)C(=O)O)[C@H]2CC1` [AA, abietic acid, reference compound] was tested, and the “G(V) shift” value ([1]; pH 7.4, 100 μM) was −16.05 mV.
`CC(C)c1ccc2c(c1)CC[C@H]1[C@](C)(C(=O)NCC(=O)O)CCC[C@]21C` [Wu117, ((1R,4aS,10aR)-7-isopropyl-1,4a-dimethyl-1,2,3,4,4a,9,10,10a-octahydrophenanthrene-1-carbonyl)glycine] was tested, and the “G(V) shift” value ([2]; pH 10, 100 μM) was −0.80 mV, the “G(V) shift” value ([1]; pH 7.4, 100 μM) was −7.27 mV and the “G(V) shift” value ([1]; pH 10, 100 μM) was −5.27 mV.
In the case of `CC(C)c1ccc2c(c1)CC[C@H]1[C@](C)(C(=O)N[C@@H](CC(=O)O)C(=O)O)CCC[C@]21C` [Wu148, ((1R,4aS,10aR)-7-isopropyl-1,4a-dimethyl-1,2,3,4,4a,9,10,10a-octahydrophenanthrene-1-carbonyl)-L-aspartic acid], the “G(V) shift” value ([2]; pH 7.4, 100 μM) is reported as −0.73 mV, the “G(V) shift” value ([1]; pH 5.5, 100 μM) is reported as −13.30 mV and the “G(V) shift” value ([1]; pH 6.5, 100 μM) is reported as −14.23 mV. For the same molecule, the “G(V) shift” value ([1]; pH 7.4, 100 μM) was −14.47 mV, the “G(V) shift” value ([1]; pH 9, 100 μM) was −11.20 mV and the “G(V) shift” value ([1]; pH 10, 100 μM) was −9.53 mV.
`CC(C)c1ccc2c(c1)CC[C@H]1[C@](C)(C(=O)NCCCC(=O)O)CCC[C@]21C` [Wu149, 4-((1R,4aS,10aR)-7-isopropyl-1,4a-dimethyl-1,2,3,4,4a,9,10,10a-octahydrophenanthrene-1-carboxamido)butanoic Acid] was tested, and the “G(V) shift” value ([2]; pH 10, 100 μM) was −0.57 mV, the “G(V) shift” value ([1]; pH 7.4, 100 μM) was −4.80 mV and the “G(V) shift (example recording, normalized G(V) curves)” value ([1]; pH 7.4, 100 μM, single recording of FIG. 2C) was −5.3 mV. The “G(V) shift” value ([1]; pH 10, 100 μM) was −5.17 mV.
For `CC(C)c1ccc2c(c1)CC[C@H]1[C@](C)(C(=O)NCCCS(=O)(=O)O)CCC[C@]21C` [Wu150, 3-((1R,4aS,10aR)-7-isopropyl-1,4a-dimethyl-1,2,3,4,4a,9,10,10a-octahydrophenanthrene-1-carboxamido)propane-1-sulfonic acid], the “G(V) shift” value ([2]; pH 7.4, 100 μM) was −4.18 mV and the “G(V) shift” value ([1]; pH 7.4, 100 μM) was −9.98 mV.
With `CC(C)c1ccc2c(c1)CC[C@H]1[C@](C)(C(=O)NCCCC(=O)NCCCC(=O)O)CCC[C@]21C` [Wu151, 4-(4-((1R,4aS,10aR)-7-isopropyl-1,4a-dimethyl-1,2,3,4,4a,9,10,10a-octahydrophenanthrene-1-carboxamido)butanamido)butanoic Acid] the “G(V) shift” value ([1]; pH 7.4, 100 μM) was −2.53 mV.
With `CC(C)c1ccc2c(c1)CC[C@H]1[C@](C)(C(=O)NCCC(=O)O)CCC[C@]21C` [Wu152, 3-((1R,4aS,10aR)-7-isopropyl-1,4a-dimethyl-1,2,3,4,4a,9,10,10a-octahydrophenanthrene-1-carboxamido)propanoic Acid] the “G(V) shift” value ([2]; pH 10, 100 μM) was −1.17 mV, the “G(V) shift” value ([1]; pH 7.4, 100 μM) was −6.2 mV and the “G(V) shift” value ([1]; pH 10, 100 μM) was −5.20 mV.
In the case of `CC(C)c1ccc2c(c1)CC[C@H]1[C@](C)(C(=O)NCCC(=O)NCCC(=O)O)CCC[C@]21C` [Wu153, 3-(3-((1R,4aS,10aR)-7-isopropyl-1,4a-dimethyl-1,2,3,4,4a,9,10,10a-octahydrophenanthrene-1-carboxamido)propanamido)propanoic Acid], the “G(V) shift” value ([1]; pH 7.4, 100 μM) is reported as −2.54 mV.
With `CC(C)C1=CC2=CC[C@H]3[C@](C)(C(=O)NCCCC(=O)O)CCC[C@]3(C)C2CC1` (stereo partly drawn) [Wu157, 4-((1R,4aR,4bR,10aR)-7-isopropyl-1,4a-dimethyl-1,2,3,4,4a,4b,10,10a-decahydrophenanthrene-1-carboxamido)butanoic Acid] the “G(V) shift” value ([1]; pH 7.4, 100 μM) was −7.10 mV.
With `CC(C)c1ccc2c(c1)CC[C@H]1[C@](C)(C(=O)NCP(=O)(O)O)CCC[C@]21C` [Wu158, (((1R,4aS,10aR)-7-isopropyl-1,4a-dimethyl-1,2,3,4,4a,9,10,10a-octahydrophenanthrene-1-carboxamido)methyl)phosphonic Acid] the “G(V) shift” value ([1]; pH 7.4, 100 μM) was −4.94 mV.
For `CC(C)c1ccc2c(c1)CC[C@H]1[C@](C)(COP(=O)(O)O)CCC[C@]21C` [Wu162, ((1R,4aS,10aR)-7-isopropyl-1,4a-dimethyl-1,2,3,4,4a,9,10,10a-octahydrophenanthren-1-yl)methyl Dihydrogen Phosphate], the “G(V) shift” value ([2]; pH 7.4, 100 μM) was −1.18 mV, the “G(V) shift” value ([1]; pH 6.5, 100 μM) was −10.03 mV and the “G(V) shift” value ([1]; pH 7.4, 100 μM) was −11.80 mV. For the same molecule, the “G(V) shift” value ([1]; pH 9, 100 μM) was −11.55 mV and the “G(V) shift” value ([1]; pH 10, 100 μM) was −8.93 mV.
For `CC(C)c1ccc2c(c1)CCC1[C@](C)(/C=C/C(=O)O)CCC[C@]21C` (stereo partly drawn) [Wu176, (E)-3-((1S,4aS)-7-isopropyl-1,4a-dimethyl-1,2,3,4,4a,9,10,10a-octahydrophenanthren-1-yl)acrylic Acid], the pKa at 100 μM [1] was 6.8, the “G(V) shift” value ([1]; pH 5.5, 100 μM) was 2.80 mV and the “G(V) shift” value ([1]; pH 7.4, 100 μM) was −15.16 mV. The “G(V) shift” value ([1]; pH 10, 100 μM) was −17.10 mV.
In the case of `CC(C)c1ccc2c(c1)CCC1[C@](C)(CC(=O)O)CCC[C@]21C` (stereo partly drawn) [Wu180, 2-((1S,4aS)-7-isopropyl-1,4a-dimethyl-1,2,3,4,4a,9,10,10a-octahydrophenanthren-1-yl)acetic acid], the “G(V) shift” value ([2]; pH 10, 100 μM) is reported as −2.40 mV, the pKa at 100 μM [1] is reported as 7.3 and the “G(V) shift” value ([1]; pH 5.5, 100 μM) is reported as 1.575 mV. For the same molecule, the “G(V) shift” value ([1]; pH 7.4, 100 μM) was −11.04 mV and the “G(V) shift” value ([1]; pH 10, 100 μM) was −19.18 mV.
`C[C@@]1(COS(=O)(=O)O)CCC[C@]2(C)c3cc(Cl)c(Cl)c(Cl)c3CC[C@@H]12` [Wu181, ((1R,4aS,10aR)-6,7,8-trichloro-1,4a-dimethyl-2,3,4,9,10,10a-hexahydrophenanthrene-1-yl)methyl hydrogen sulfate] was tested, and the “ΔVMAX (maximum shift)” value ([3]; concentration-response of G(V) shift) was −42.1 mV and −42.1±5.7 mV, the EC50 ([3]; concentration-response of G(V) shift, read-out: c1/2 (half-maximal concentration)) was 12.4 µM and the “G(V) shift” value ([3]; pH 7.4, 10 μM, mean) was −18.9±2.4 mV and −18.90 mV. For the same molecule, the “Increase of affinity compared to DHAA (factor)” value ([1]; pH 7.4) was 16, the “Increase of affinity compared to Wu161 and Wu50 (factor)” value ([1]; pH 7.4) was 6 and the “Increase of amplitude/efficacy compared to DHAA (factor)” value ([1]; pH 7.4) was 2.0. The “Increased G(V) shift at low concentrations compared to DHAA (factor)” value ([1]; pH 7.4) was 32, the “G(V) shift” value ([1]; pH 7.4, 3 μM) was −21.3±2.9 mV and the “G(V) shift” value ([1]; pH 7.4, 10 μM) was −31.90 mV. The “ΔVMAX (maximum shift)” value ([1]; pH 7.4, concentration-response of G(V) shift) was −53.6 mV and −53.6±4.0 mV and the EC50 ([1]; pH 7.4, concentration-response of G(V) shift, read-out: c1/2 (half-maximal concentration)) was 6.1 µM.
